From ChEMBL document CHEMBL5338792, “Degradation of Rat Sarcoma Proteins Targeting the Post-Translational Prenyl Modifications via Cascade Azidation/Fluorination and Click Reaction” (J Med Chem, 2023)
Each block holds one compound with its values, some of them ahead of it. Activity calls are given as the source filed them. No cut-off for these calls is given here.

How the values were obtained:
[1] = molecular target: T1, Protein cereblon/GTPase HRas/GTPase NRas/GTPase KRas (Homo sapiens) (UniProt P01112+P01111+P01116+Q96SW2); test: SacrPROTAC activity at E3 ubiquitin ligase/RAS in TMSN3/Selectfluor-treated human HeLa cells assessed as induction of RAS degradation at 200 uM measured after 24 hrs in presence of propargyl pomalidomide by Western blot analysis; type: cell-based
T1 sequence (P01111 whole entry, looked up): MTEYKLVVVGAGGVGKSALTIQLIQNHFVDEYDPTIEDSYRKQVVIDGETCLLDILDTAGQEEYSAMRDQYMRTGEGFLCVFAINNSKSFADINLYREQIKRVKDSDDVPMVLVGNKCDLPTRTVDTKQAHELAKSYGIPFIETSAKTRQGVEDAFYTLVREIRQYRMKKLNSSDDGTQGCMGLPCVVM
T1 sequence (P01112 whole entry, looked up): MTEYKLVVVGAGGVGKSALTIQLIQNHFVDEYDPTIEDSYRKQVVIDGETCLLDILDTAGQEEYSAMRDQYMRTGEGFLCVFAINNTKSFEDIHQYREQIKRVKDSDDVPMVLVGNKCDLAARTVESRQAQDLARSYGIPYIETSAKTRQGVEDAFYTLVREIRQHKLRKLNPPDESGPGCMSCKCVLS
T1 sequence (P01116 whole entry, looked up): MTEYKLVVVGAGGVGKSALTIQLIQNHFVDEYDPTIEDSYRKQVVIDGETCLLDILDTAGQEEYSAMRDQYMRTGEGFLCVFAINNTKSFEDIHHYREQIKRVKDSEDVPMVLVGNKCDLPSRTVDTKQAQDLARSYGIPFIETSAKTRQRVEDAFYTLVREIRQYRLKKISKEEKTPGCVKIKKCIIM
T1 sequence (Q96SW2 whole entry, looked up): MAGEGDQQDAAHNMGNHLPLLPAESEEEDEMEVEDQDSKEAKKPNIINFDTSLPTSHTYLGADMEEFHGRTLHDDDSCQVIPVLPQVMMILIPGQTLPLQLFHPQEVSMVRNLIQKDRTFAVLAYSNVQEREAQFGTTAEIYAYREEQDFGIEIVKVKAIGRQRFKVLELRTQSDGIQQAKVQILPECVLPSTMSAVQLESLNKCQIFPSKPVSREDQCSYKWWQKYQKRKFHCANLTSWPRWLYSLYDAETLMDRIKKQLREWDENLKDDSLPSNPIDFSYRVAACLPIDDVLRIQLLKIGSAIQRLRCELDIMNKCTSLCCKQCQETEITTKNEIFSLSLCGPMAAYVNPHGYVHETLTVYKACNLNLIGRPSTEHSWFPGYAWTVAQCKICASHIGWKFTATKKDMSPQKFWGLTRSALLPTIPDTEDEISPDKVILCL

MCF7 [2] = test: SacrPROTAC activity at E3 ubiquitin ligase/RAS in TMSN3/Selectfluor-treated human MCF7 cells assessed as induction of RAS degradation at 200 uM measured after 24 hrs by Western blot analysis; type: functional, cell-based
HT-29 [3] = test: Inhibition of […] in TMSN3/Selectfluor-treated human HT-29 cells upto 200 uM in presence of CuBr/TBTA by CCK8 assay; type: functional, cell-based
[4] = molecular target: T1, Protein cereblon/GTPase HRas/GTPase NRas/GTPase KRas (Homo sapiens); test: SacrPROTAC activity at E3 ubiquitin ligase/RAS in TMSN3/Selectfluor-treated human HeLa cells assessed as induction of RAS degradation incubated for 24 hrs by Western blot analysis; type: cell-based; conditions: dose <= 200.0 µM
[5] = molecular target: T1, Protein cereblon/GTPase HRas/GTPase NRas/GTPase KRas (Homo sapiens); test: SacrPROTAC activity at E3 ubiquitin ligase/RAS in TMSN3/Selectfluor-treated human HeLa cells assessed as induction of RAS degradation at 200 uM measured after 24 hrs in presence of methyl propargyl pomalidomide by Western blot analysis; type: cell-based
HT-29 [6] = test: SacrPROTAC activity at E3 ubiquitin ligase/RAS in TMSN3/Selectfluor-treated human HT-29 cells assessed as induction of RAS degradation at 100 to 200 uM measured after 24 hrs by Western blot analysis; type: functional, cell-based; conditions: dose 100-200 µM
HT-29 [7] = test: SacrPROTAC activity at E3 ubiquitin ligase/RAS in TMSN3/Selectfluor-treated human HT-29 cells assessed as induction of RAS degradation at 100 to 200 uM measured for 12 to 24 hrs by Western blot analysis; type: functional, cell-based; conditions: dose 100-200 µM, time 12-24 hrs
HeLa [8] = test: Upregulation of GSTP1 in TMSN3/Selectfluor-treated human HeLa cells at 50 to 200 uM incubated for 24 hrs in presence of CuBr/TBTA by TMT mass spectrometric analysis; type: functional, cell-based; conditions: dose 50-200 µM
MCF7 [9] = test: SacrPROTAC activity at E3 ubiquitin ligase/RAS in TMSN3/Selectfluor-treated human MCF7 cells assessed as induction of RAS degradation at 200 uM measured upto 48 hrs by Western blot analysis; type: functional, cell-based
HeLa [10] = test: Downregulation of HRAS in TMSN3/Selectfluor-treated human HeLa cells at 50 to 200 uM incubated for 24 hrs in presence of CuBr/TBTA by TMT mass spectrometric analysis; type: functional, cell-based; conditions: dose 50-200 µM
[11] = molecular target: T1, Protein cereblon/GTPase HRas/GTPase NRas/GTPase KRas (Homo sapiens); test: SacrPROTAC activity at E3 ubiquitin ligase/RAS in TMSN3/Selectfluor-treated human HeLa cells assessed as induction of RAS degradation at 200 uM measured after 24 hrs by Western blot analysis; type: cell-based
[12] = molecular target: T1, Protein cereblon/GTPase HRas/GTPase NRas/GTPase KRas (Homo sapiens); test: SacrPROTAC activity at E3 ubiquitin ligase/RAS in TMSN3/Selectfluor-treated human HeLa cells assessed as induction of RAS degradation at 200 uM measured after 24 hrs in presence of PYR-41 by Western blot analysis; type: cell-based
HeLa [13] = test: Induction of apoptosis in TMSN3/Selectfluor-treated human HeLa cells at 200 uM in presence of CuBr/TBTA incubated for 24 hrs by annexin V-FITC/PI staining based flow cytometry; type: functional, cell-based
[14] = molecular target: T1, Protein cereblon/GTPase HRas/GTPase NRas/GTPase KRas (Homo sapiens); test: SacrPROTAC activity at E3 ubiquitin ligase/RAS in TMSN3/Selectfluor-treated human HeLa cells assessed as induction of RAS degradation at 75 uM incubated for >48 hrs by Western blot analysis; type: cell-based
A549 [15] = test: SacrPROTAC activity at E3 ubiquitin ligase/RAS in TMSN3/Selectfluor-treated human A549 cells assessed as induction of RAS degradation at 200 uM measured for 48 hrs by Western blot analysis; type: functional, cell-based
A549 [16] = test: SarcPROTAC activity at VHL/RAS in TMSN3/Selectfluor-treated human A549 cells at 50 uM in presence of CuBr/TBTA incubated for 24 hrs by Western blot analysis; type: cell-based
HeLa [17] = test: SarcPROTAC activity at VHL/RAS in TMSN3/Selectfluor-treated human HeLa cells at 50 uM in presence of CuBr/TBTA incubated for 24 hrs by Western blot analysis; type: cell-based

Activity [1]: inactive
SMILES: C#CCNCC(=O)Nc1cccc2c1C(=O)N(C1CCC(=O)N(C)C1=O)C2=O (configuration not stated)

Activity [4]: Dose-Dependent Effect
Activity [5]: Active
Activity [11]: Active
Activity [12]: inactive
Activity [14]: Active
SMILES: C#CCNCC(=O)Nc1cccc2c1C(=O)N(C1CCC(=O)NC1=O)C2=O (configuration not stated)
Activity (MCF7 [2]): Active
inhibition (HT-29 [3]): Active
Activity (HT-29 [6]): Active
Activity (HT-29 [7]): Active
Activity (HeLa [8]): Active
Activity (MCF7 [9]): inactive
Activity (HeLa [10]): Active
Activity (HeLa [13]): Active
Activity (A549 [15]): Active

SMILES: C#CCCOC(=O)N[C@H](C(=O)N1C[C@H](O)C[C@H]1C(=O)NCc1ccc(-c2scnc2C)cc1)C(C)(C)C
Activity (A549 [16]): Active
Activity (HeLa [17]): Active
